Laboratory results reported in patent US20230372525A1, “TRANSGLUTAMINASE CONJUGATION METHOD WITH AMINO ACID-BASED LINKERS” (ARARIS BIOTECH AG, priority 2020, published 2023).
[ ]: non-standard residue; d: D form. The star is where a group is joined. N3 = [N-]=[N+]=N*; βAla = NCCC(=O)O

Key:
[1] = test system: native, glycosylated antibody trastuzumab (anti Her2 IgG); test: MTG-mediated conjugation of peptide linkers to native glycosylated trastuzumab, conjugation efficiency by LC-MS under reducing conditions; assay type: biochemical; details: for Conjugation efficiency (%) to antibody: trastuzumab 5 mg/mL, 20 molar equivalents linker, 50 mM Tris pH 7.6; for Conjugation efficiency (%) to antibody / Conjugation efficiency (%) Trastuzumab with conditions 3: MTG 3 U/mg, 24 hours at 37° C.; for Conjugation efficiency (%) antibody with conditions 2: conditions 2: trastuzumab 1 mg/mL, MTG 6 U/mg, 80 molar equivalents linker, 20 hours at 37° C.; for Conjugation efficiency (%) Trastuzumab with conditions 3: conditions 3: 5 mg/mL antibody, 5 molar equivalents linker
Method: (§1) Linkers are used as obtained and dissolved at a suitable stock concentration (e.g. 25 mM) following the manufacturers instruction, aliquots are prepared and stored at −20° C. Two antibodies of IgG-subclass (antibody 1: anti Her2 IgG1, antibody 2: anti CD38 IgG1) are modified as follows: 5 mg/mL of non-deglycosylated antibody (˜33.33 μM) is mixed with 20 molar equivalents of amino acid-based linker (i.e. ˜667 μM), 3 U/mg of antibody and a suitable buffer. The reaction mixture is incubated for 20 h at 37° C. and then subjected for LC-MS analysis under reducing conditions. Other reaction conditions have been used as indicated in the corresponding example.
(§2) For conjugation of the peptide linkers (see FIG. 2 for structures), 5 mg/mL of native, glycosylated monoclonal antibody in 50 mM Tris pH 7.6, microbial transglutaminase (MTG, Zedira) at a concentration of 3 U/mg in 50 mM Tris pH 7.6 or water, and 20 molar equivalents of the indicated peptide linker were used and incubated for 24 hours at 37° C. in a rotating thermomixer. Conjugation efficiency was assessed by LC-MS under DTT reduced conditions. Reduction of samples was achieved by incubation of antibody-linker-conjugates (ALCs) for 15 min at 37° C. in 50 mM DTT (final) and 50 mM Tris buffer. Probes were analyzed on a Xevo G2-XS QTOF (Waters) coupled to an Acquity UPLC H-Class System (Waters) and an ACQUITY UPLC BEH C18 Column. Conjugation efficiency (CE) was calculated from deconvoluted spectra and presented in %. Intensities resulting from both glycoforms (G1F and G0F) were taken into account for the calculation, according to the formula: […]
For conjugation of the peptide linkers (see FIG. 2 for structures), 1 mg/mL of native, glycosylated monoclonal antibody in 50 mM Tris pH 7.6, microbial transglutaminase (MTG, Zedira) at a concentration of 6 U/mg in 50 mM Tris pH 7.6 or water, and 80 molar equivalents of the indicated peptide linker were used and incubated for 20 hours at 37° C. in a rotating thermomixer. These are defined as “conditions 2”. Conjugation efficiency was assessed by LC-MS under DTT reduced conditions. Reduction of samples was achieved by incubation of antibody-linker-conjugates (ALCs) for 15 min at 37° C. in 50 mM DTT (final) and 50 mM Tris buffer. Probes were analyzed on a Xevo G2-XS QTOF (Waters) coupled to an Acquity UPLC H-Class System (Waters) and a ACQUITY UPLC BEH C18 Column. Conjugation efficiency (CE) was calculated from deconvoluted spectra and presented in %. Intensities resulting from both glycoforms (G1F and G0F) were taken into account for the calculation, according to the formula: […]
(§3) For conjugation of the peptide linkers (see FIG. 2 for structures), 5 mg/mL of native, glycosylated monoclonal antibody in 50 mM Tris pH 7.6, microbial transglutaminase (MTG, Zedira) at a concentration of 3 U/mg in 50 mM Tris pH 7.6 or water, and 5 molar equivalents of the indicated peptide linker were used and incubated for 24 hours at 37° C. in a rotating thermomixer. These are defined as “conditions 3”. Conjugation efficiency was assessed by LC-MS under DTT reduced conditions. Reduction of samples was achieved by incubation of antibody-linker-conjugates (ALCs) for 15 min at 37° C. in 50 mM DTT (final) and 50 mM Tris buffer. Probes were analyzed on a Xevo G2-XS QTOF (Waters) coupled to an Acquity UPLC H-Class System (Waters) and a ACQUITY UPLC BEH C18 Column. Conjugation efficiency (CE) was calculated from deconvoluted spectra and presented in %. Intensities resulting from both glycoforms (G1F and G0F) were taken into account for the calculation, according to the formula: […]

[2] = test system: native, glycosylated antibody daratumumab (anti CD38 IgG); test: MTG-mediated conjugation of peptide linkers to native glycosylated daratumumab, conjugation efficiency by LC-MS under reducing conditions; assay type: biochemical; details: MTG 3 U/mg, 24 hours at 37° C.; for Conjugation efficiency (%) Daratumumab with conditions 3: conditions 3: 5 mg/mL antibody, 5 molar equivalents linker; for Conjugation efficiency (%) to antibody: daratumumab 5 mg/mL, 20 molar equivalents linker, 50 mM Tris pH 7.6
Method: as §1, §2, §3

[3] = molecular target: DNA-dependent RNA polymerase II (Homo sapiens, UniProt P24928); details: read-out: KD of the complex between amanitin and RNA-polymerase II; cited from earlier work
[4] = test system: various tumor cell lines; details: cited from earlier work

Row | Compound | Conjugation efficiency (%) to antibody [1] [%] | Conjugation efficiency (%) Daratumumab with conditions 3 [2] [%] | Conjugation efficiency (%) to antibody [2] [%] | Conjugation efficiency (%) antibody with conditions 2 [1] [%] | Conjugation efficiency (%) Trastuzumab with conditions 3 [1] [%] | Kd [3] [nM] | IC50, cytostatic effects on various tumor cell lines [4]
1 | SAGRK(N3)-NH2 [reference compound] | 0 | – | – | – | – | – | –
2 | NH2-C1-GRK(N3)-NH2 (GGRK; HELM PEPTIDE1{G.G.R.[[N-]=[N+]=NCCCC[C@H](N[*:1])C(=O)[*:2]].[am]}$$$$V2.0; SMILES [N-]=[N+]=NCCCC[C@H](NC(=O)[C@H](CCCNC(=N)N)NC(=O)CNC(=O)CN)C(N)=O) [NT24] | 99 | 89 | 95 | 78 | 97 | – | –
3 | NH2-C4-ValArg-NH2 [NT40] | 96 | 51 | 89 | 83 | 58 | – | –
4 | amanitin | – | – | – | – | – | 3 | –
5 | LGRC-NH2 [reference compound] | 0 | – | – | – | – | – | –
6 | CC[C@H](C)[C@H](NC(=O)[C@H]1CCCCN1C)C(=O)N(COC(=O)CC(C)C)[C@H](C[C@@H](OC(C)=O)c1nc(C(=O)N[C@@H](Cc2ccc(O)cc2)C[C@H](C)C(=O)O)cs1)C(C)C [Tubulysin A] | – | – | – | – | – | – | picomolar range
7 | NH2-C5-ValCit-NH2 [NT43] | 83 | – | – | 79 | – | – | –
8 | NH2-C3-GRK(N3)-NH2 [NT38] | 53 | – | – | 36 | – | – | –
9 | NH2-C2-GRK(N3)-NH2 (H-[βAla]GRK(N3)-NH2) [NT37] | 70 | – | – | 38 | – | – | –
10 | NH2-C4-GRK(N3)-NH2 [NT41] | 99 | 88 | 98 | 70 | 88 | – | –
11 | AARK(N3)-NH2 [reference compound] | 0 | – | – | – | – | – | –
12 | NH2-C6-TrpArg-NH2 [NT67] | 82 | – | 83 | – | – | – | –
13 | NH2-C5-GRK(N3)-NH2 [NT36] | 84 | 72 | 93 | 56 | 75 | – | –
14 | NH2-C1-ARK(N3)-NH2 (GARK; HELM PEPTIDE1{G.A.R.[[N-]=[N+]=NCCCC[C@H](N[*:1])C(=O)[*:2]].[am]}$$$$V2.0; SMILES C[C@H](NC(=O)CN)C(=O)N[C@@H](CCCNC(=N)N)C(=O)N[C@@H](CCCCN=[N+]=[N-])C(N)=O) [NT28] | 89 | – | – | – | – | – | –
15 | NH2-C4-ValCit-NH2 [NT39] | 67 | – | – | 63 | – | – | –
16 | RGRK(N3)-NH2 [reference compound] | 0 | – | – | – | – | – | –
17 | VGRC-NH2 [reference compound] | 0 | – | – | – | – | – | –
18 | NH2-C6-AspArg-NH2 [NT66] | 64 | – | 66 | – | – | – | –
19 | NH2-C6-IleArg-NH2 [NT65] | 96 | 79 | 95 | – | 78 | – | –
20 | NH2-C5-ValArg-NH2 [NT44] | 100 | 73 | 95 | 88 | 77 | – | –
21 | NH2-C6-ThrArg-NH2 [NT64] | 95 | 92 | 93 | – | 92 | – | –
22 | NH2-C6-GRK(N3)-NH2 [NT42] | 67 | – | – | 38 | – | – | –
